Article PMC5607274, “An iterative compound screening contest method for identifying target protein inhibitors using the tyrosine-protein kinase Yes” (Scientific Reports, 2017)

Biological target: T1, human recombinant Yes [a.a. 2–543 (end)] (Homo sapiens, UniProt P07947)
T1 construct: human recombinant Yes [a.a; 2–543 (end)]; purchased BPS Bioscience 40488
Assay: ADP-Glo kinase assay, inhibition rates of Yes phosphorylation activity (first and second screening)
Assay type: biochemical
Details: 10 μmol L−1 compound; for First screening IR (inhibition rate): mean of n = 4 wells; for Second screening IR (inhibition rate): dissolved from fresh powder, n = 4
Outline: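 Hits from a first pass were rescreened after re-dissolution from fresh powder. The first pass reported the mean inhibition rate of quadruplicate wells per compound. Activity was that of recombinant human Yes [a.a. 2–543] kinase, read out with the ADP-Glo ADP-detection method.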

T1 sequence (P07947 2-543): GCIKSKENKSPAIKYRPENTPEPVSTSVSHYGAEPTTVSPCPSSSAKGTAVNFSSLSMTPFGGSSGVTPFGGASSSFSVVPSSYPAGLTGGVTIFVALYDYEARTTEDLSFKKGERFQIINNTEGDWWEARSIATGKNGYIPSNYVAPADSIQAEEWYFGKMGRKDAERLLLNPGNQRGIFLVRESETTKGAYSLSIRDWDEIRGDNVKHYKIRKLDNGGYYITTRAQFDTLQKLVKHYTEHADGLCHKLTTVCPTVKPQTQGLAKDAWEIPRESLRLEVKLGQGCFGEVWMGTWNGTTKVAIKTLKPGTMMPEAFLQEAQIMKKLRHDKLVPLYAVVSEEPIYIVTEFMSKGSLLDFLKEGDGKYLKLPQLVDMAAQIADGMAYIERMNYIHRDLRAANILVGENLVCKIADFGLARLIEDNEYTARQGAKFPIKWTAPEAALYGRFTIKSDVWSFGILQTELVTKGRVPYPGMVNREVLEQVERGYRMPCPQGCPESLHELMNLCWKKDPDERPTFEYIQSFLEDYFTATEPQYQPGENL

Row | SMILES | First screening IR (inhibition rate) [%] | Second screening IR (inhibition rate) [%]
1 | CCc1cc(N2CCC(NCc3c(Cl)cccc3N3CCCC3)CC2)ncn1 [Compound Z1549038619] | 0 | –
2 | Cc1ccc(S(=O)(=O)N(C)c2ccc(OCC(=O)Nc3ccc4oc(C)nc4c3)cc2)cc1 [Compound Z70909087] | 17 | –
3 | Cl.Oc1ccc(-c2cc(-c3ccccc3)c3cc(Cl)ccc3n2)cc1 [Compound Z48950817] | 51 | -2
4 | CC1CCN(C(=O)c2nc3ncc(Br)cn3n2)CC(C)C1 (stereo not drawn) [Compound Z1500127626] | 1 | –
5 | COc1ccc2[nH]c(C)c(C(=O)NCC(C)(C)c3cccc(F)c3)c2c1 [Compound Z1482480186] | 70 | –
6 | O=C(CCNC(=O)c1ccco1)Nc1ccc2nc(N3CCCC3)sc2c1 [Compound Z226430254] | 3 | –
7 | CC(C)(C)C(=O)NCc1ccc(C(=O)COC(=O)c2cc3c(s2)CCC3)s1 [Compound Z73973253] | 9 | –
8 | CC1CC(CNC(=O)c2cccc(O)c2)CN1Cc1ccccc1 (stereo not drawn) [Compound Z1633590863] | 1 | –
9 | FC(F)(F)c1ccnc(Nc2ccc(N3CCCC3)nc2)n1 [Compound Z319012342] | -5 | –
10 | CCCN(C1CCS(=O)(=O)C1)S(=O)(=O)CCC (stereo not drawn) [Compound Z830071152] | 16 | –
11 | NC(=O)Nc1ccc(-c2csc(CCc3ccccc3)n2)cc1 [Compound Z785638578] | 0 | –
12 | Cl.Fc1ccc(-c2nc3ccc(Cl)cc3c(-c3ccccc3)c2CCCl)cc1 [Compound Z48950878] | 10 | –
13 | COc1cc(CNC(=O)C2CCCN2C(C)=O)ccc1OCc1cccnc1 (stereo not drawn) [Compound Z396609184] | 7 | –
14 | C=CCn1c(-c2ccc(Cl)cc2)nn(CN2CCN(C(=O)c3ccccc3F)CC2)c1=S [Compound Z358275910] | 5 | –
15 | CC(Sc1nnnn1C)C(=O)Nc1ccc2c(c1)OCO2 (stereo not drawn) [Compound Z18519758] | 5 | –
16 | NCCN1C(=O)C2C3C=CC(C3)C2C1=O (stereo not drawn) [Compound Z803067872] | 7 | –
17 | CC(C)(C)n1ncc2c(NCCc3nnc4n3CCCC4)ncnc21 [Compound Z1661117530] | 7 | –
18 | CCCCn1c(CN2CCN(c3ccccn3)CC2)nc2c1c(=O)[nH]c(=O)n2Cc1ccccc1 [Compound Z104935524] | 2 | –
19 | CC(C)c1noc2nc(-c3ccncc3)cc(C(=O)O)c12 [Compound Z56646434] | -2 | –
20 | COc1cc(/C=C2/C(=O)Nc3ccc(Cl)cc32)cc(Cl)c1OC(F)F [Compound Z44304760] | 4 | –
21 | O=C(CSc1nnc(-c2cccnc2)n1C1CC1)Nc1nc(-c2ccc(F)cc2)cs1 [Compound Z92534919] | 10 | –
22 | Cc1nccn1Cc1ccc(NC(=O)c2ncccc2O)cc1 [Compound Z1746485864] | 55 | –

The remaining lines, values ahead:

Row | First screening IR (inhibition rate) [%] | Second screening IR (inhibition rate) [%] | SMILES
23 | -2 | – | Cc1cccc(N2CCN(C(=O)C3CCN(C(=O)C4CC4)CC3)CC2)c1C [Compound Z26849648]
24 | 4 | – | O=C(NCc1cnn(Cc2ccccc2)c1)Nc1ccncc1F [Compound Z1677761301]
25 | 52 | – | CS1(=O)=NC=C(C(=O)O)C=C1 (stereo not drawn) [Compound Z1262519784]
26 | -3 | – | Cc1ccnc(NCC2CCN(Cc3cccc(C(N)=O)c3)C2)c1 (stereo not drawn) [Compound Z990550860]
27 | 24 | – | O=C(CN1C(=O)c2ccccc2C1=O)NCc1cn(Cc2ccccc2)nc1-c1ccccc1 [Compound Z230132198]
28 | -1 | – | Cc1ccc(S(=O)(=O)C2CS(=O)(=O)CC2O)c(C)c1 (stereo not drawn) [Compound Z1549639934]
29 | 0 | – | CCC(C)NC(=O)c1ccc2c(=O)n(CC(C)C)c3nnc(SCC(=O)Nc4cccc(C)c4)n3c2c1 (stereo not drawn) [Compound Z1157725046]
30 | -4 | – | Cc1nc(C2CCCN(C(=O)c3cncc(-c4ccc5c(c4)CCO5)c3)C2)n[nH]1 (stereo not drawn) [Compound Z1464424071]
31 | -2 | – | CN(Cc1ccccc1Cl)S(=O)(=O)c1ccccc1S(C)(=O)=O [Compound Z285666434]
32 | 17 | – | CC(C)c1nc2n(n1)CC(NC(=O)Nc1cc(-c3ccccc3)ns1)CC2 (stereo not drawn) [Compound Z1327803154]
33 | 5 | – | Cn1cc(Nc2nccc(C(F)(F)F)n2)cn1 [Compound Z646439314]
34 | 2 | – | CS(=O)(=O)N(C(=O)c1ccc(OC(F)(F)F)cc1)C1CCC(O)CC1 (stereo not drawn) [Compound Z1328888966]
35 | 66 | 12 | COC(=O)c1sc2ncc(/C=C/C(=O)c3cccnc3)cc2c1C [Compound Z871886494]
36 | 1 | – | Cc1[nH]n(-c2ccccc2)c(=O)c1/C(=N/NC(=O)c1cc(-c2ccccc2)n[nH]1)c1ccccc1 [Compound Z56919929]
37 | 41 | – | O=S(=O)(Nc1cccc(-c2cn3ccccc3n2)c1)c1ccccc1 [Compound Z57289575]
38 | -3 | – | COc1ccccc1Nc1ncnc(N)n1 [Compound Z56799636]
39 | 12 | – | Cc1ccccc1Nc1nc(N)nc(CSc2ccc(C(F)(F)F)cn2)n1 [Compound Z45354574]
40 | 15 | – | Cc1ccccc1CN1CCN(CC(=O)c2cc(C)n(CC3CCCO3)c2C)CC1 (stereo not drawn) [Compound Z105957250]
41 | 11 | – | C(=N/Nc1nc2ccccc2nc1-c1ccccc1)/c1ccc2nccnc2c1 [Compound Z969651240]
42 | 30 | – | CCCCN(C1CCS(=O)(=O)C1)S(=O)(=O)c1ccc(Cl)c(Cl)c1 (stereo not drawn) [Compound Z147580066]
43 | -3 | – | O=C(CCc1ccc(S(=O)(=O)N2CCCC2)cc1)NCC(c1ccccc1Cl)N1CCCC1 (stereo not drawn) [Compound Z166811416]
44 | -1 | – | Cc1oc2cc(OCC(=O)N(C)C3CCS(=O)(=O)C3)ccc2c(=O)c1-c1c(F)cccc1Cl (stereo not drawn) [Compound Z25645184]
45 | 16 | – | N#Cc1ccc(C(=O)Nc2nc(-c3ccc(F)c(F)c3)cs2)cc1 [Compound Z28714833]
46 | 8 | – | O=C(Nc1nc2c(s1)CN(Cc1ccccc1)CC2)c1csc(-c2ccsc2)n1 [Compound Z108907460]
47 | -9 | – | Cc1cccn2cc(-c3ccc(NC(=O)c4ccc(=O)[nH]c4)cc3)nc12 [Compound Z666279820]
48 | -12 | – | CC(CCc1ccc(O)cc1)NC(=O)Nc1ccc(NC(=O)c2ccco2)cc1 (stereo not drawn) [Compound Z412774176]
49 | 6 | – | Cc1[nH]ncc1Nc1ccc2nccnc2n1 [Compound Z1182665660]
50 | 14 | – | Cc1sc2ncnc(Nc3ccc4c(c3)OCO4)c2c1C [Compound Z31191207]
51 | -14 | – | O=C(O)c1c2c(nc3ccccc13)/C(=C\c1ccccc1)CCC2 [Compound Z46035726]
52 | 5 | – | O=C(CSc1nnc(-c2cccnc2)n1C1CC1)c1ccc2c(c1)OCCCO2 [Compound Z98268667]
